Results from PubChem BioAssay (NCI).
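Protocol summary: plate cells (96-well), add compound at 5 concentrations, incubate 48 h, interpolate endpoints linearly. TGI denotes the concentration required for complete inhibition of growth.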

What was measured:
Assay in all cases: NCI-60 cell line screen, 48 h
HS 578T breast = test system: HS 578T breast
SK-OV-3 ovarian = test system: SK-OV-3 ovarian
A549 NSCLC = test system: A549 NSCLC
HCT-15 colon = test system: HCT-15 colon
M14 melanoma = test system: M14 melanoma
HL-60(TB) leukemia = test system: HL-60(TB) leukemia
T-47D breast = test system: T-47D breast
SN12C renal = test system: SN12C renal
UACC-62 melanoma = test system: UACC-62 melanoma
SK-MEL-28 melanoma = test system: SK-MEL-28 melanoma
SF-268 CNS = test system: SF-268 CNS
SNB-75 CNS = test system: SNB-75 CNS

Compound | TGI (HS 578T breast) [µM] | TGI (SK-OV-3 ovarian) [µM] | TGI (A549 NSCLC) [µM] | TGI (HCT-15 colon) [µM] | TGI (M14 melanoma) [µM] | TGI (HL-60(TB) leukemia) [µM] | TGI (T-47D breast) [µM] | TGI (SN12C renal) [µM] | TGI (UACC-62 melanoma) [µM] | TGI (SK-MEL-28 melanoma) [µM] | TGI (SF-268 CNS) [µM] | TGI (SNB-75 CNS) [µM]
C1=C\SS/C=C\SS/C=C\SS/C=C\SS/1 | > 100 | > 100 | > 100 | 55.8 | > 100 | 58.1 | > 100 | > 100 | > 100 | > 100 | > 100 | 
C1CC2=C(C1)[Se]C(=C1Sc3nsnc3S1)[Se]2 | > 100 | > 100 | > 100 | > 100 | > 100 |  | > 100 | > 100 | > 100 | > 100 | > 100 | > 100
O=c1c2ccccc2oc2nc3n(c(=O)c12)CCCS3 | > 100 | > 100 | > 100 | > 100 | > 100 |  | > 100 | > 100 | > 100 | > 100 | > 100 | > 100
CCC(C)[C@H](NC(=O)[C@H](Cc1ccccc1)NC(=O)N(CC)c1ccccc1)C(=O)N[C@@H](CC(C)C)C(=O)OC (stereo not given in full) | > 100 | > 100 | > 100 | > 100 | > 100 |  | > 100 | > 100 | > 100 | > 100 | > 100 | > 100
O=C1CSC2(CC(/C=C/c3ccccc3)=NN2c2cccc(S(=O)(=O)O)c2)N1c1nc2ccccc2s1 (stereo not given) | > 100 |  | > 100 | > 100 | > 100 | 94.6 | 52.5 | 71.2 | 45.2 | > 100 |  | 59.2
CC(C)(C)OC(=O)CN1CCNCCNCC1 | > 100 | > 100 | > 100 | > 100 | > 100 |  | > 100 | > 100 | > 100 | > 100 | > 100 | > 100
CCc1nn(CN2CCN(C)CC2)c(=S)n1/N=C\c1ccc(-c2ccc([N+](=O)[O-])cc2)o1 | > 100 | > 100 | > 100 | > 100 | > 100 | > 100 | 68.5 | > 100 | > 100 |  | > 100 | 
CN1C/C(=C\c2cccs2)C2=NC(=S)NC(c3cccs3)C2C1 (stereo not given) | > 100 | > 100 | > 100 | > 100 | > 100 | 19.1 | 84.5 | > 100 | > 100 | > 100 | > 100 | 
O=S(=O)(c1ccc(Br)cc1)n1c2ccc(Br)cc2c2nc3ccccc3nc21 | > 100 | > 100 | > 100 | > 100 | > 100 |  | > 100 | > 100 | > 100 | > 100 | > 100 | 82.6
O=C1c2c(F)c(F)c(F)c(F)c2SC2=NCCN12 | 46.4 | 28.7 | 30.1 | 7.56 | 14.1 |  | 29 | 21.8 | 19.2 | 22.8 | 28.2 | 29.9
Nc1nc(N)c2ncn(CC3CCC(CO)C3)c2n1 (stereo not given) | > 100 | > 100 | > 100 | > 100 | > 100 |  | > 100 | > 100 | > 100 | > 100 | > 100 | > 100
CN(C)CCNc1ccc(C(=O)NCCCN(C)CCCNC(=O)c2ccc(NCCN(C)C)c3c(=O)c4ccccc4[nH]c23)c2[nH]c3ccccc3c(=O)c12 | 1.75 | 1.3 | 0.318 | 38.5 | 1.53 | 2.74 | 2.64 | 1.02 | 0.776 | 0.604 | 0.544 | 
CC1=NN(c2nc(N)nc(-c3ccccc3S(N)(=O)=O)n2)C(C)(C)C1 | > 100 | > 100 |  | > 100 | 87.2 | 41.2 | > 100 |  |  | > 100 | > 100 | 
COc1cc(/C=C/C(=O)OCC23CC[C@@]4(C(=O)O)CCC(C)[C@H](C)C4C2=CCC2[C@@]4(C)CC[C@H](O)C(C)(C)C4CC[C@]23C)ccc1O (stereo not given in full) | 17.1 | 83.4 | 22.6 | 56.3 | 49.5 | 51.1 | > 100 | 67.8 | 41.9 | 85.9 | 33.3 | 
CNC(=O)c1ccccc1-[s+]1c2ccccc2c(=O)n1C (stereo not given) | > 100 |  | > 100 | > 100 | > 100 | > 100 | > 100 | > 100 | > 100 | > 100 | > 100 | 
COc1cc(/C=C2/SC(c3ccccc3)N(c3ccc(NC(C)=O)cc3)C2=O)cc(OC)c1OC (stereo not given) | > 100 | > 100 | > 100 | > 100 | > 100 | > 100 | > 100 | > 100 | > 100 | > 100 | > 100 | 
